Counter-ions that a name gives are not always drawn.

One assay deals with PDE4 (Homo sapiens, UniProt Q08499). Nature of the assay: In-vitro assay for PDE4 enzymes, real-time enzyme-coupled spectrophotometric assay (Table 9). It is filed as biochemical. Particulars: human PDE4D; activity class, Table 9; read-out: hPDE4D.
Another assay concerns the target PDE4B (Homo sapiens, UniProt Q07343). Briefly: In-vitro assay for PDE4 enzymes, real-time enzyme-coupled spectrophotometric assay, PDE4B Activity (Table 10). It is filed as biochemical. As to conditions: human PDE4B (hPDE4B), enzyme-coupled spectrophotometric assay; read-out: PDE4B Activity, hPDE4B.

PDE4B, sequence (Q07343 whole entry): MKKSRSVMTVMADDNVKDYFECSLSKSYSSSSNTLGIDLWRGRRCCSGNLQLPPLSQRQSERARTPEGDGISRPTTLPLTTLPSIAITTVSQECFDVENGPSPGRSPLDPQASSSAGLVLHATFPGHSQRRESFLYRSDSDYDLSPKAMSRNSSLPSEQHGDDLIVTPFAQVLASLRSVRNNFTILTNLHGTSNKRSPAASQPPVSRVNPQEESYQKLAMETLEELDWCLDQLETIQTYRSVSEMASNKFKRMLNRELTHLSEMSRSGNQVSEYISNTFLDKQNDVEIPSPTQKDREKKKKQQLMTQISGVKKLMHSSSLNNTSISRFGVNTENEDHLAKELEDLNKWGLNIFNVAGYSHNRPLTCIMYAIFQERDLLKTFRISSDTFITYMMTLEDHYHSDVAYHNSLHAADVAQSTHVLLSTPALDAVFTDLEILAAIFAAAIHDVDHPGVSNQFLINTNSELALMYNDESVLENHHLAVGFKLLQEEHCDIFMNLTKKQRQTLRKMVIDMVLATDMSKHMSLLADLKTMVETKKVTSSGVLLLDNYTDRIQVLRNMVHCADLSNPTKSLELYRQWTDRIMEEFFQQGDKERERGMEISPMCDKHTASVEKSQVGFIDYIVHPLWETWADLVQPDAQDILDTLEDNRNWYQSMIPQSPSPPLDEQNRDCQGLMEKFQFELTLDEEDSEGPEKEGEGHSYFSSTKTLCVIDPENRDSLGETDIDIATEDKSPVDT
PDE4, sequence (Q08499 whole entry): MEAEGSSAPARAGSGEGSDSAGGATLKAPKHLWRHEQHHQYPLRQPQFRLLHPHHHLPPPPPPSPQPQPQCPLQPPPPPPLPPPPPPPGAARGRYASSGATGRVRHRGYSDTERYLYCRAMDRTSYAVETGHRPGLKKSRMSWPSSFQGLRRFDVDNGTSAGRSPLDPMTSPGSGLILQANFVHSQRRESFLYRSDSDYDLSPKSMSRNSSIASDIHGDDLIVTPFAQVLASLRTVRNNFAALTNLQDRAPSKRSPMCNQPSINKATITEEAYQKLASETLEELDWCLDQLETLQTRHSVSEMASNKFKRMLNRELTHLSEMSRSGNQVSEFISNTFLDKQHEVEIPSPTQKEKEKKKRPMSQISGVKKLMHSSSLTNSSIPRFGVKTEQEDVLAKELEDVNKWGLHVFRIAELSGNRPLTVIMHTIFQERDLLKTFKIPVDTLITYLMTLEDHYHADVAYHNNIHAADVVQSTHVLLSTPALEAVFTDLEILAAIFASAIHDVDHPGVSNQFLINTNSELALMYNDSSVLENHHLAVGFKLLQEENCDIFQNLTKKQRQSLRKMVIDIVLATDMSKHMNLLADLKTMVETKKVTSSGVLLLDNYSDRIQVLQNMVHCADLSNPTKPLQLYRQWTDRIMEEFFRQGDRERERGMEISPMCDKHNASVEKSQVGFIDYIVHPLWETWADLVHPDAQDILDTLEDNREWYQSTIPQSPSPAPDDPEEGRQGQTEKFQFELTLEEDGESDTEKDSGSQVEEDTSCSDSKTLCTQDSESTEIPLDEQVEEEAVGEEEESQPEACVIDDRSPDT

As to `COc1ccc(CN2CCNC2=O)cc1-c1cccc([N+](=O)[O-])c1` [P-034, 1-(6-Methoxy-3′-nitro-biphenyl-3-ylmethyl)-imidazolidin-2-one], the IC50 on PDE4 and on PDE4B was below 5 µM throughout.

Turning to `COc1ccc(C(C)(O)c2ccc(NC(C)=O)cc2)c(F)c1-c1cccc(Cl)c1` (racemic) [P-530, N-{4-[1-(3′-Chloro-2-fluoro-6-methoxy-biphenyl-3-yl)-1-hydroxy-ethyl]-phenyl}-acetamide], the IC50 at PDE4 is below 5 µM; at PDE4B, 21 to 40 µM.

In the case of `COc1ccc(Cc2ccc(C(C)(C)N)nc2)cc1-c1cccc(Cl)c1` [P-600, hydrochloride], the IC50 at PDE4 was below 5 µM; at PDE4B, 21 to 40 µM.

As for `NC(=O)Nc1ccc(Cc2ccc(OC[C@@H]3CCCN3)c(-c3cccc(Cl)c3)c2)cc1` [P-563, {4-[3′-Chloro-6-((S)-1-pyrrolidin-2-ylmethoxy)-biphenyl-3-ylmethyl]-phenyl}-urea], the IC50 on PDE4 is below 5 µM; at PDE4B, 5 to 20 µM.

As to `COc1ccc(Cn2nnc3ccccc32)cc1-c1cccc([N+](=O)[O-])c1` [P-007, 1-(6-Methoxy-3′-nitro-biphenyl-3-ylmethyl)-1H-benzotriazole], the results for the IC50 at PDE4 and on PDE4B were below 5 µM and 5 to 20 µM, respectively.

For `COc1ccc(Cc2ccc(N3CCNC3=O)nc2)c(F)c1-c1cccc(C(C)=O)c1` [P-361, 1-[5-(3′-Acetyl-2-fluoro-6-methoxy-biphenyl-3-ylmethyl)-pyridin-2-yl]-imidazolidin-2-one], the IC50 at PDE4 and at PDE4B was below 5 µM in each case.

As for `COc1ccc(Cn2cncn2)cc1-c1cccc(SC)c1` [P-085, 1-(6-Methoxy-3′-methylsulfanyl-biphenyl-3-ylmethyl)-1H-[1,2,4]triazole], the IC50 on PDE4 and on PDE4B was below 5 µM in each case.

As for `COc1ccc(Cc2ccc(-n3ccnc3)nc2)c(F)c1-c1cccc(Cl)c1` [P-573, 5-(3′-chloro-2-fluoro-6-methoxy-biphenyl-3-ylmethyl)-2-imidazol-1-yl-pyridine], the IC50 on PDE4 and on PDE4B was below 5 µM each time.

Turning to `COc1ccc(Cc2ccc(NS(C)(=O)=O)cc2)cc1-c1cccc([N+](=O)[O-])c1` [P-123], the IC50 at PDE4 and at PDE4B was below 5 µM each time.

On to `COc1ccc(Cc2ccc(OCCN(C)C)nc2)c(F)c1-c1cccc(Cl)c1` [P-588, {2-[5-(3′-Chloro-2-fluoro-6-methoxy-biphenyl-3-ylmethyl)-pyridin-2-yloxy]-ethyl}-dimethyl-amine], for which the IC50 on PDE4 and at PDE4B was below 5 µM each time.

`COc1ccc(Cc2ccc(CO)cc2)c(O)c1-c1cccc([N+](=O)[O-])c1` [P-183, 3-(4-Hydroxymethyl-benzyl)-6-methoxy-3′-nitro-biphenyl-2-ol]: the IC50 at PDE4 and on PDE4B was below 5 µM in each case.

`COc1ccc(Cc2ccc(NC(=O)CCC(=O)O)cc2)cc1-c1cccc([N+](=O)[O-])c1` [P-122]: the IC50 at PDE4 was below 5 µM; on PDE4B, 5 to 20 µM.

Take `COc1ccc(Cn2cccn2)cc1-c1cccc([N+](=O)[O-])c1` [P-077, 1-(6-Methoxy-3′-nitro-biphenyl-3-ylmethyl)-1H-pyrazole]: the IC50 at PDE4 and on PDE4B was below 5 µM in each case.

As to `COc1ccc(Cc2ccc(NS(C)(=O)=O)cc2)c(F)c1-c1cccc(Cl)c1` [P-227], the IC50 at PDE4 and on PDE4B was below 5 µM each time.

For the compound `COc1ccc(Cc2ccccc2CO)cc1-c1cccc([N+](=O)[O-])c1` [P-134, [2-(6-Methoxy-3′-nitro-biphenyl-3-ylmethyl)-phenyl]-methanol], the IC50 on PDE4 is below 5 µM; at PDE4B, 5 to 20 µM.

On to `COc1ccc(Cc2c(C)nn(CC(F)(F)F)c2C)cc1-c1cccc([N+](=O)[O-])c1` [P-090, 4-(6-Methoxy-3′-nitro-biphenyl-3-ylmethyl)-3,5-dimethyl-1-(2,2,2-trifluoro-ethyl)-1H-pyrazole], for which the IC50 at PDE4 and on PDE4B was below 5 µM each time.

Values taken from patent US8791267B2, “Biaryl PDE4 inhibitors for treating inflammatory, cardiovascular and CNS disorders” (Decode Genetics EHF, priority 2007, dated 2014).
